The text below walks through data of EP0509769B1, “Heterocyclic amides having HLE inhibiting activity” (ZENECA LIMITED, priority 1991, dated 1992).

The structures appear in SMILES notation.

Assay [1] in a line: in vivo test (not specified further).
For assay [2], the target named is T1, human neutrophil elastase (HNE) (Homo sapiens, UniProt P08246).
T1 construct: host or cells: exogenous human enzyme instilled into the trachea of male Syrian hamsters
T1 sequence (P08246 30-267): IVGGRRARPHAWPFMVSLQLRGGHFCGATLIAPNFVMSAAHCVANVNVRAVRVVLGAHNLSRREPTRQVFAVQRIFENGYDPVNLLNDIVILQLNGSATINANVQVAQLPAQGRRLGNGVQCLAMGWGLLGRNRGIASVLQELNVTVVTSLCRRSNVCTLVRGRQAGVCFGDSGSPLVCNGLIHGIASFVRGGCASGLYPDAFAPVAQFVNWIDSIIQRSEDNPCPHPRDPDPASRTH
The assay is described as follows: Acute Hemorrhagic Assay: lung hemorrhage in hamsters after intratracheal HNE. It is filed as in vivo, hamster. The settings on record: dose of 5 mg/kg by mouth, 30 min prior to administration of HNE; male Syrian hamsters.
Excerpt: This assay relies on monitoring only the amount of hemorrhage in the lung following intratracheal administration of human neutrophil elastase (HNE). Hemorrhage is quantified by disrupting erythrocytes recovered in lung lavage fluid and comparing that to dilutions of whole hamster blood. […] Four hours after enzyme administration, the animals are killed with an overdose of pentobarbital sodium, the thorax opened and the lungs and trachea removed. The excised lungs are lavaged with three changes of 2 mL normal saline via a tracheal cannula. The recovered lavages are pooled, the volumes (about 5 mL) are recorded and the lavages stored at 4 °C until assayed. For calculation of the amount of blood in each sample, the thawed lavages and a sample of whole hamster blood are sonicated to disrupt erythrocytes and appropriately diluted into individual wells of a 96-well microtiter plate. The optical densities (OD) of the disrupted lavages and blood samples are determined at 405 nm. The (µL blood equivalents) / (mL lavage) are determined by comparing the OD of the test samples with the OD of the standard curve prepared from whole hamster blood. The total µL equivalents of blood recovered is determined by multiplying recovered lavage volume by the (µL blood equivalents) / (mL lavage) for each sample.

With `CC(C)C(NC(=O)Cn1c(-c2ccccc2)ccc(N)c1=O)C(=O)C(F)(F)F` (stereo not drawn) [Example 49, 2-(3-Amino-2-oxo-6-phenyl-1,2-dihydro-1-pyridyl)-N-(3,3,3-trifluoro1-isopropyl-2-oxopropyl)acetamide], the “activity in an in vivo test” value in assay [1] is “activity”.

For `CC(C)C(NC(=O)Cn1c(-c2ccccc2)ccc(NC(=O)Cc2ccc(N)cc2)c1=O)C(=O)C(F)(F)F.Cl` (stereo not drawn) [Example 159, 2-[3-(4-Aminophenylacetylamino)-2-oxo-6-phenyl-1,2-dihydro-1-pyridyl]-N-(3,3,3-trifluoro-1-isopropyl-2-oxopropyl)acetamide hydrochloride], in assay [1], the “activity in an in vivo test” value is on record as “activity”.

With `CC(C)C(NC(=O)Cn1c(-c2ccccc2)ccc(NC(=O)C(F)(F)F)c1=O)C(=O)C(F)(F)F` (stereo not drawn) [Example 167, 2-(3-trifluoroacetylamino-2-oxo-6-phenyl-1,2-dihydro-1-pyridyl)-N-(3,3,3-trifluoro-1-isopropyl-2-oxopropyl)acetamide], the inhibition of hemorrhage result in assay [2] was “statistically significant inhibition of hemorrhage”.
